≈ marks a conversion by molar mass, not a printed value.
Conditions: buffer; pH 7.4; 200.0 µM

| SMILES | solubility kinetic [µg/mL] |
| --- | --- |
| CC(C)(C)c1csc(NC(=O)C2=COCCO2)n1 | 40.2 (≈ 150 µM) |
| Cc1ccc(CNC(=O)Cc2ccc(Br)cc2)cc1 | < 0.7 |
| O=Cc1c[nH]c2ccc(OCc3ccccc3)cc12 | < 0.5 |
| C=CCn1c(C)cc(C(=O)Cn2c(C(C)O)nc3ccccc32)c1C (centres undefined) | 29.4 (≈ 87.1 µM) |
| O=C(OCc1cc2ccccc2[nH]c1=O)c1ccc([N+](=O)[O-])cc1 | 1.1 (≈ 3.39 µM) |
| COC(=O)C1=C(C)OC(N)=C(C#N)C12C(=O)Nc1ccccc12 (centres undefined) | > 46.7 |
| N#CC1=C(N)Oc2cc(N)ccc2C1c1ccccc1F (centres undefined) | 4.9 (≈ 17.4 µM) |
| COc1ccc(/C(C)=N/N2C(C)CCCC2C)c(OC)c1 (centres undefined) | > 43.6 |
| C=CCN=C1S/C(=C\c2ccc(N(C)C)cc2)C(=O)N1CC=C | 5.5 (≈ 16.8 µM) |
| O=C(COc1ccccc1)NCC(=O)Nc1ccncc1 | > 42.8 |
| Cc1ccc(CCC(=O)Nc2ccccc2C(=O)O)o1 | > 41 |
| COc1ccc(NC(=O)CCOc2cc(C)ccc2C)cc1S(=O)(=O)N1CCCCC1 | 7.9 (≈ 17.7 µM) |
| CCOC(=O)c1c(C)n(CC)c2c1cc(O)c1ccccc12 | < 0.6 |
| O/N=C(\CN1CCCCC1)c1ccccc1 | > 32.7 |
| NNC(=O)c1ccc(COCC(F)(F)C(F)F)cc1 | > 42 |
| NC(=O)NOCc1cccc(Cl)c1 | > 30.1 |
| Cc1ccc(NC(=O)c2cc(F)c(F)cc2Cl)nc1 | 12.8 (≈ 45.3 µM) |
| CCc1ccc(OCC(=O)NC2CC(C)(C)NC(C)(C)C2)cc1 | 44 (≈ 138 µM) |
| Cc1[nH]c(=O)[nH]c(=O)c1S(=O)(=O)Nc1ccc(F)cc1F | > 47.6 |
| CC(C)[C@H](NC(=O)c1ccc([N+](=O)[O-])cc1Cl)C(=O)N1CCN(C/C=C/c2ccccc2)CC1 | 44.3 (≈ 91.3 µM) |

| SMILES | solubility kinetic [µg/mL] |
| --- | --- |
| COc1cccc(NC(=O)c2ccc3c(c2)CCN3S(C)(=O)=O)c1 | > 52 |
| COc1cccc(NC(=O)CN2C(=O)NC(Cc3c[nH]c4ccccc34)C2=O)c1 (centres undefined) | 22 (≈ 56.1 µM) |
| CC(=O)C1C(c2ccc(C)cc2)c2c(noc2C)CC1(C)O (centres undefined) | 42.2 (≈ 141 µM) |
| CCCN(CCC)CC(O)Cn1c2ccccc2c2ccccc21 (centres undefined) | 12.5 (≈ 38.5 µM) |
| N#CCSc1nc2ccccc2c(=O)n1CCCC(=O)NCc1ccco1 | 2.5 (≈ 6.54 µM) |
| COc1ccc(NC(=O)Nc2cnccn2)cc1 | 8.1 (≈ 33.2 µM) |
| COc1ccc(CC(C)NCCC(c2ccccc2)c2ccccc2)cc1 (centres undefined) | 47.1 (≈ 131 µM) |
| COC(=O)CSc1[nH]c2ccc(F)cc2c1[N+](=O)[O-] | 41.8 (≈ 147 µM) |
| COc1ccc(CCC(=O)NCCc2cnc[nH]2)cc1 | 35.2 (≈ 129 µM) |
| Cn1c(C(=O)c2ccccc2[N+](=O)[O-])nc2ccccc21 | 36.1 (≈ 128 µM) |
| CCOC(=O)CCSc1n[nH]c(=S)s1 | > 37.6 |
| C=CCOc1cccc(/C=C/c2nc3ccccc3c(=O)[nH]2)c1 | > 45.7 |
| O=C(CN1CCN(C/C=C/c2ccccc2)CC1)Nc1ccc(F)cc1F | 49.9 (≈ 134 µM) |
| CCCOc1ccc(N2CC(C(=O)NC3=NCCS3)CC2=O)cc1 (centres undefined) | 43.8 (≈ 126 µM) |
| O=C(CSc1nc2c(c(=O)[nH]1)CCC2)Nc1ccc(F)cc1 | 10.7 (≈ 33.5 µM) |
| CS(=O)(=O)CC(=O)Nc1ccc2nc3n(c(=O)c2c1)CCCCC3 | 43.2 (≈ 124 µM) |
| CN(C(=O)Oc1ccc(F)cc1)c1ccccc1 | 24 (≈ 97.9 µM) |
| COC(=O)c1nc2ccc(N3CCOCC3)cc2c(C)c1C(=O)OC | > 51.7 |
| CN1CCN(C(=O)c2cc3cc(F)ccc3[nH]2)CC1 | > 39.2 |
| COC(=O)C1=C(C)N(C)C(=O)NC1c1c(OC)ccc2ccccc12 (centres undefined) | 5.4 (≈ 15.9 µM) |

| SMILES | solubility kinetic [µg/mL] |
| --- | --- |
| Cc1[nH]c2ccccc2c1/C=C(\C#N)C(=O)NCC1CCCO1 (centres undefined) | 20.6 (≈ 66.6 µM) |
| Cc1nc(C)c(C(=O)O)c(-c2cccs2)c1C(=O)O | > 41.6 |
| Fc1ccc(-c2nnc(N3CCOCC3)c3ccccc23)cc1F | > 49.1 |
| COc1cc2c(cc1OC)CC(C(=O)NCc1ccccc1)NC2 (centres undefined) | 33.2 (≈ 102 µM) |
| COc1ccccc1NC(=O)NC1(C)CCS(=O)(=O)C1 (centres undefined) | > 44.8 |
| Cc1ccc(CCC(=O)Nc2ccc(Cl)cc2)o1 | 23.9 (≈ 90.6 µM) |
| O=C1NC2=C(C(=O)CCC2)C(c2ccccc2)N1 (centres undefined) | > 36.3 |
| CCCC(=O)Nc1cc(C(=O)O)ccc1Sc1ccc(C)cc1 | > 49.4 |
| CC[N+](CC)(CC)CC(=O)Nc1c(C)cccc1C.[Br-] | > 51.5 |
| c1ccc(CCNC2=NCCS2)cc1 | > 30.9 |
| O=C(CC(=O)c1ccccc1)Nc1ccc(Cl)cc1 | 3.3 (≈ 12.1 µM) |
| CS(=O)(=O)N1CCCC(C(=O)Nc2c(F)cccc2F)C1 (centres undefined) | > 47.8 |
| CCSc1nc(C)nc2sc(C)c(C)c12 | < 0.3 |
| Cc1cccc(OCC(=O)NCCCNC(=O)c2ccc(C)nc2)c1 | > 51.2 |
| Cc1ccc(NC(=O)C2CCCO2)c(Br)c1 (centres undefined) | 37.5 (≈ 132 µM) |
| Cc1ccc(C(=O)O/N=C(\N)c2ccccn2)cc1 | 6.9 (≈ 27 µM) |
| COc1ccc(C(CC(=O)N2CCCC2)c2ccc(F)cc2)cc1 (centres undefined) | 44.3 (≈ 135 µM) |
| CCOc1ncccc1C(=O)N(CCC(C)C)c1c(N)n(Cc2ccccc2)c(=O)[nH]c1=O | 3.3 (≈ 7.31 µM) |
| CC1CN(S(=O)(=O)c2cc(C(=O)N(C)Cc3cccs3)ccc2Cl)CC(C)O1 (centres undefined) | 64.6 (≈ 146 µM) |
